The values below come from patent publication US12486242B2, “Long-acting low-addiction HNK derivative and preparation method therefor” (SHENZHEN RUIJIAN BIOTECHNOLOGY CO., LTD, priority 2020, dated 2025).

Series [1] relates to mice. The series can be described thus: Forced swimming test (FST), immobility time. The note with it: for antidepressant effect (immobility time): intragastric administration, mice; for antidepressant effect: dose not given; for course of efficacy within 7 days / effect on the 7th day: intragastric; for course of efficacy within 7 days: 1 hour to 7 days. It counts as in vivo. The protocol:
One hour before the forced swimming test (FST), the mice were transferred to the laboratory. The test was conducted under normal light condition and monitored by a digital camera. During the test, the mice were individually placed in transparent glass cylinders (28.5 cm in height, 14 cm in diameter) filled with 20 cm height of water (23±1° C.). On the first day, the mice were trained for 6 minutes and then removed from the cylinder. On the second day, the mice were administered saline, HNK, Compound 16, Compound C, and Compound D, and after different time periods, their immobility time was tested. During the last 4 minutes of the entire 6-minute swimming test, the static time was recorded through EthoVision XT (Noldus, Netherlands) of Noldus system. The static time was defined as passive floating, that is there was no other movement except the movements necessary to keep the animal's head above the water. After every two to three tests, the water in the cylinders was replaced. After the swimming test, the mice were removed from the water and dried under an infrared lamp.
The mice were given 1 mg (A), 10 mg (B) and 30 mg (C) of HNK and Compund I6 by intragastric administration, respectively, and their immobility time was measured after 1 hour and 7 days. The percentage of immobility time is expressed as mean±SEM. *p<0.05, **p<0.01, compared to base test. Mice of each group was N=8. Saline: saline group; I6: Compound I6 treatment group; HNK: 2R,6R-hydroxynorketamine treatment group.

Series [2] has as its system mice. Briefly: Behavioral sensitization experiment (spontaneous activity measurement). The format is in vivo, C57BL/6J mice. The note with it: doses 5 mg, 10 mg, 30 mg, intragastric, d1, d7, d15. The method, then: (§1) Animals: Male C57BL/6J mice of 8-12 weeks old were randomly divided into groups, 10 mice in each group, with body weight of 18-22 g, fed at room temperature (22±1° C.), under humidity of (50±10)%, illumination time from 8:00 to20:00. The mice had free access to food and water, and adapted to the experimental environment for at least 2-3 days before the experiments. All experiments were conducted from 8:00 to 16:00.
1.1 Small animal spontaneous activity measurement: An animal spontaneous activity infrared analysis system consists of a spontaneous activity box, an infrared probe device and a data acquisition system. The size of the spontaneous activity box is 40 cm×40 cm×65 cm, with sound isolation and light isolation, and mounted with a ventilation device. The activity statuses of the animals were recorded by the infrared probe, and the numbers of spontaneous activities of the animals were calculated. In order to test the effect of drugs on spontaneous activities of mice, the mice were randomly divided into 4 groups with 10 mice in each group. The Groups included: vehicle, I6, C, D (5.0, 10.0, 30.0 mg/kg), mor (10 mg/kg). The mice were administrated intragastrically once a day in the morning for 7 consecutive days; after that, the drugs withdrew for 7 days (without any treatment). On the 15th day, mice in each group were given Veh and the drugs (5.0, 10.0, 30.0 mg/kg) by intragastric administration to stimulate. Spontaneous activity of the mice within 1 hour was measured immediately after administration at d1, d7 and d15.
Statistical analysis: Experimental data were expressed as X±SEM. Graphpad software was used for statistical analysis, and t-test was used for comparison between two groups. One-way ANOVA analysis was used for comparison among multiple groups, and then LSD method was used for pairwise comparison.

Series [3] has as its system mice. Briefly: Position preference (CPP) experiment, three-room system. It counts as in vivo, C57BL/6J mice. The conditions noted are these: doses 5 mg, 10 mg, 30 mg, intragastric, 6 days training, residence time in white box within 15 min. The protocol:
as §1
1.2 CPP experiment: A three-room CPP system includes black and white boxes (25 cm×25 cm×30 cm) at left and right sides, separated by a middle box (10 cm×25 cm×30 cm). During the experiment, mice were put into the middle box and could freely move to the black and white boxes. A door with the size of 5 cm×5 cm was arranged between the middle box and each of the black and white boxes. The experiment adopted a biased procedure, which had three stages of pre-test, training, and test stages. During the whole experiment, the environmental conditions such as light, color and smell in the boxes were guaranteed to be consistent.
Pre-test stage: On days 1-3, the spacer plates between the boxes were removed, and all mice were put into the middle box after being injected with saline subcutaneously, allowing them to move freely in the boxes for 15 min, once a day for 3 consecutive days. The residence time of the mice in the black and white boxes was respectively recorded to determine the natural preference of the mice. The mice were trained with the non-natural preference box as the companion medicine box. […]
Test stage: on day 10, the spacer plates were removed, and the mice were put into the middle box allowing to move freely. At the same time, the residence time of the mice in the white box within 15 min were recorded.
Position preference was tested by a three-room system. […] After continuous training for 6 days, the test was carried out, and the residence times of the mice within 15 min in the white box were recorded. […]

The nature of series [4]: Applicant's experimental studies on HNK (efficacy duration, addiction). The note with it: in vivo.
Another series has as its system NMDA receptor. The note with it: cited from earlier work.
For the next series, the system named is patients. The note with it: within 72 hours after a single intravenous injection, 0.5 mg/kg; cited from earlier work.

“Also recorded” adds a separate entry of the source. Where a name gives a salt, the structure may show the parent alone.

In the case of `CN[C@@]1(c2ccccc2Cl)CCC[C@@H](OC(=O)c2ccccc2)C1=O` [Compound C], the “antidepressant effect (immobility time)” value in the series with mice [1] (30 mg) is on record as “no antidepressant effect”. For the same compound, in the series with mice [1], the antidepressant effect entry is recorded as “no antidepressant effect”. Also, in the series with mice [2], the “behavioral sensitization effect on mice” value is “behavioral sensitizing effect; also recorded: behavioral sensitization effect”. Moreover, the “position preference effect on mice” value in the series on mice [3] was “induced position preference”.

As to `N[C@]1(c2ccccc2Cl)CCC[C@H](OC(=O)c2ccc(CN3CCOCC3)cc2)C1=O` [Compound D], the “antidepressant effect (immobility time)” value in the series with mice [1] (30 mg) is given as “no antidepressant effect”. Moreover, in the series with mice [1], the antidepressant effect result was “no antidepressant effect”. In addition, the “behavioral sensitization effect on mice” value with mice [2] is reported as “behavioral sensitizing effect; also recorded: behavioral sensitization effect”. In addition, the “position preference effect on mice” value with mice [3] is given as “induced position preference”.

In the case of `N[C@@]1(c2ccccc2Cl)CCC[C@@H](OC(=O)c2ccoc2)C1=O` [Compound I6, (2R,6R)-6-(3-furan)formyloxynorketamine hydrochloride salt], the figures for the “antidepressant effect (immobility time)” value in the series on mice [1] (1 mg), in the series on mice [1] (10 mg) and with mice [1] (30 mg) were “no antidepressant effect”, “antidepressant effect” and “antidepressant effect”, respectively. Also, the “difference between the 10 mg and 30 mg treatment groups” value with mice [1] (10 mg vs 30 mg) is reported as “no significant difference”. For the same compound, the “course of efficacy within 7 days” value in the series with mice [1] (10 mg) and with mice [1] (30 mg) was “substantially did not decrease” throughout. The “immobility time during forced swimming” value with mice [1] (compared with the HNK-treated group) is “less immobility time”. Besides, the “antidepressant effect at the 7th day after administration” value in the series on mice [1] (compared with the HNK-treated group, dose not stated) is on record as “significant antidepressant effect”. Also, the “behavioral sensitization effect on mice” value in the series on mice [2] (hydrochloride salt) was “no behavioral sensitization effect; also recorded: non-sensitization effect”. Also, the “position preference effect on mice” value in the series on mice [3] (hydrochloride salt) is “no position preference effect; also recorded: non-position preference effect”.

For `N[C@@]1(c2ccccc2Cl)CCC[C@@H](O)C1=O` [HNK, (2R,6R)-6-hydroxydemethylketamine, reference compound], in the series on mice [1] (1 mg), the “antidepressant effect (immobility time)” value is given as “no antidepressant effect”. In the series on mice [1] (10 mg), the “antidepressant effect (immobility time)” value is “antidepressant effect”, the “effect on the 7th day” value is on record as “substantially had no effect” and the “course of efficacy within 7 days” value is “decreased rapidly”. Moreover, in the series with mice [1] (30 mg), the “antidepressant effect (immobility time)” value is “antidepressant effect”, the “effect on the 7th day” value is recorded as “substantially had no effect” and the “course of efficacy within 7 days” value is “decayed rapidly”. In series [4], the addiction result is listed as “a certain degree of addiction” and the “duration of efficacy after administration” value was “basically lost activity within one week”. In addition, in the series on NMDA receptor, the “activity to NMDA receptor” value is reported as “no activity”.

With `CNC1(c2ccccc2Cl)CCCCC1=O` (centres unmarked) [ketamine], the “patients with Hamilton Depression Scale score decreased by 50% or more” value in the series on patients is on record as “more than 50%”.
